Results as given in patent publication US12527801B2, “Cell activator of animal cell” (Vitamin C60 BioResearch Corporation, priority 2019, dated 2026).

What was measured:
[1] = Test of long-term continuous use (double blind, half face): water content of keratin and TEWL; format: in vivo, human; conditions: conclusion from 8-week use of toner with 0.1% by weight AOH
Description: A test of long-term continuous use (double blind test) was performed using a toner (toner B) comprising 0.1% by weight of AOH of Example 4 and a placebo toner (toner A) having the same composition as that of the toner of Example 4 except that AOH was not comprised to perform evaluation of the water content of keratin and the transepidermal water loss (TEWL). 22 test subjects (females, average age 48.4±4.68 years old) were asked to apply the toner A on the half face and the toner B on the other half face after washing their faces twice in the morning and evening, and this was continued for 8 weeks. The water content of keratin and the TEWL were measured at the start of the test, after 4 weeks, and after 8 weeks. The water content of stratum corneum and the TEWL on the left and right cheek portions of the test subjects were measured using each of SKICON-200EX (Yayoi Co., Ltd.) and Cyclone Moisture Evaporator AS-CT1 (ASCH Japan Co., Ltd.). Analysis of test results was performed on 20 subjects as effective test subjects excluding 2 test subjects whose left-right difference in the water content of keratin at the start of the test was 150 μS or more.

[2] = In vitro skin sensitization test (DPRA method) (OECD TG442C); format: biochemical
[3] = tested on: Normal human epidermal keratinocytes; assay: Action of activating epidermal cells (MTT reduction); format: cell-based; conditions: for Index (%) Mean ± S.D.: 48 h, untreated cells = 100
Description: Normal human epidermal keratinocytes were seeded on 96-well plates at the density of 5.0×10^3 cells/well using a HuMedia KG2 medium (KG2). 24 hours after seeding, the above-mentioned medium was replaced with a HuMedia KB2 medium (KB2) comprising the test sample. AOH and AHX (2-azahypoxanthine) were used as test samples, KG2 as a positive control (P. C.) for the cell activating action was treated instead of the test sample, and cells which were not treated with the samples were used as a negative control. After culturing for 48 hours, the above-mentioned medium was replaced with KB2 comprising 0.2 mg/mL of MTT to perform culturing for 1 hour. After removing the medium, the absorbance at 550 nm and 650 nm of the cell lysate in which 2-propanol was added to lyse the cells was measured. The amount of MTT reduced to blue formazan was obtained by subtracting the absorbance at 650 nm, which was derived from the cell turbidity, from the absorbance at 550 nm. The action of activating epidermal keratinocytes was shown as Index (%), which is a percentage of the absorbance of the cells, which was treated with the test samples, to the absorbance of the cells, which was not treated with the samples (negative control), with the amount of MTT reduced as an index.

[4] = tested on: Normal human epidermal keratinocytes; assay: Microarray test of gene expression (DNA Chip Genopal); format: cell-based; conditions: for ATP5F1 (internal standard) gene expression, Average / CDH1 (E-cadherin) gene expression, Average / CLDN1 (claudin 1) gene expression, Average / DSC1 (desmocollin 1) gene expression, Average / DSG1 (desmoglein 1) gene expression, Average / EDN1 (endothelin 1) gene expression, Average / FN1 (fibronectin) gene expression, Average / GUSB (internal standard) gene expression, Average / HAS3 (hyaluronan synthase) gene expression, Average / IVL (involucrin) gene expression, Average / KLK5 (kallikrein 5) gene expression, Average / KLK7 (kallikrein 7) gene expression, Average / KRT1 (keratin 1) gene expression, Average / KRT10 (keratin 10) gene expression, Average / PPIA (Cyclophilin) (internal standard) gene expression, Average / PTGES (prostaglandin E synthetase) gene expression, Average / PTGS2 (COX-2) (cyclooxygenase 2) gene expression, Average / RPLPO (internal standard) gene expression, Average / SPINK5 (LEKTI1) (serine protease inhibitor) gene expression, Average / SPRR1B (cornified envelope constituent protein) gene expression, Average / TGM1 (transglutaminase 1) gene expression, Average: 24 h, ratio, control as 1
Description: Normal human epidermal keratinocytes were seeded on 6-well plates at the cell density of 1.5×10^5 cells/well using a HuMedia-KG2 medium. After culturing for 24 hours, the medium was replaced with 3 mL of a HuMedia-KB2 medium comprising AOH at the concentration of 0, 30, 100, and 300 μg/mL. After the replacement, culturing was performed for 24 hours, and the cells were immersed in a QIAzol reagent and lysed. RNA purified using an miRNeasy Mini Kit (QIAGEN) was recovered from the lysate, and a DNA microarray was performed using an mRNA expression analysis chip (DNA Chip Genopal (registered trademark)). The obtained results were analyzed to represent the expression of various genes as a ratio with a correction value of the control as 1, and a significant difference test was performed using the Student's t-test (significance level p of 5%).
In Table 2, it can be determined that when the value is larger than 1, gene expression is increased, and when the p value is smaller than 0.05, there is a significant change with respect to the control (indicated by * in the table). AOH treatment varied the expression of some genes in a concentration-dependent manner.

[5] = AOH treatment, concentration not given

O=c1[nH]c2nn[nH]c(=O)c2[nH]1 [AOH, 3H-imidazo[4,5-d][1,2,3]triazine-4,6(5H,7H)-dione]
moisturizing effect on the skin [1]: has the moisturizing effect on the skin
toxicity in in vitro skin sensitization test (DPRA method) [2]: toxicity was not recognized
Index (%) Mean ± S.D. ([3]; 3.9 μg/mL): 105.7 ± 4.5%
Index (%) Mean ± S.D. ([3]; 7.8 μg/mL): 108.4 ± 4%
Index (%) Mean ± S.D. ([3]; 15.6 μg/mL): 108.7 ± 5.6%
Index (%) Mean ± S.D. ([3]; 31.3 μg/mL): 109.7 ± 5.2%
Index (%) Mean ± S.D. ([3]; 62.5 μg/mL): 102.3 ± 2.8%
Index (%) Mean ± S.D. ([3]; 125 μg/mL): 98.6 ± 0.7%
Index (%) Mean ± S.D. ([3]; 250 μg/mL): 94.2 ± 1.7%
Index (%) Mean ± S.D. ([3]; 500 μg/mL): 91.9 ± 0.9%
cytotoxicity compared ([3]; AOH versus AHX): lower cytotoxicity than AHX
change in Index ([3]; concentrations of 7.8 to 31.3 μg/mL): significant increase in Index
proliferative effect / cell activating action ([3]; epidermal keratinocytes): has the cell activating action
ATP5F1 (internal standard) gene expression, Average ([4]; 30 μg/mL): 1.00
CDH1 (E-cadherin) gene expression, Average ([4]; 30 μg/mL): 1.11
CLDN1 (claudin 1) gene expression, Average ([4]; 30 μg/mL): 1.19
DSC1 (desmocollin 1) gene expression, Average ([4]; 30 μg/mL): 1.26
DSG1 (desmoglein 1) gene expression, Average ([4]; 30 μg/mL): 1.09
EDN1 (endothelin 1) gene expression, Average ([4]; 30 μg/mL): 1.24
FN1 (fibronectin) gene expression, Average ([4]; 30 μg/mL): 1.12
GUSB (internal standard) gene expression, Average ([4]; 30 μg/mL): 0.97
HAS3 (hyaluronan synthase) gene expression, Average ([4]; 30 μg/mL): 1.09
IVL (involucrin) gene expression, Average ([4]; 30 μg/mL): 1.35
KLK5 (kallikrein 5) gene expression, Average ([4]; 30 μg/mL): 1.11
KLK7 (kallikrein 7) gene expression, Average ([4]; 30 μg/mL): 1.12
KRT1 (keratin 1) gene expression, Average ([4]; 30 μg/mL): 1.46
KRT10 (keratin 10) gene expression, Average ([4]; 30 μg/mL): 1.19
PPIA (Cyclophilin) (internal standard) gene expression, Average ([4]; 30 μg/mL): 0.98
PTGES (prostaglandin E synthetase) gene expression, Average ([4]; 30 μg/mL): 0.77
PTGS2 (COX-2) (cyclooxygenase 2) gene expression, Average ([4]; 30 μg/mL): 0.90
RPLPO (internal standard) gene expression, Average ([4]; 30 μg/mL): 1.03
SPINK5 (LEKTI1) (serine protease inhibitor) gene expression, Average ([4]; 30 μg/mL): 1.15
SPRR1B (cornified envelope constituent protein) gene expression, Average ([4]; 30 μg/mL): 1.27
TGM1 (transglutaminase 1) gene expression, Average ([4]; 30 μg/mL): 1.16
ATP5F1 (internal standard) gene expression, Average ([4]; 100 μg/mL): 1.02
CDH1 (E-cadherin) gene expression, Average ([4]; 100 μg/mL): 1.09
CLDN1 (claudin 1) gene expression, Average ([4]; 100 μg/mL): 1.49
DSC1 (desmocollin 1) gene expression, Average ([4]; 100 μg/mL): 1.28
DSG1 (desmoglein 1) gene expression, Average ([4]; 100 μg/mL): 1.13
EDN1 (endothelin 1) gene expression, Average ([4]; 100 μg/mL): 1.39
FN1 (fibronectin) gene expression, Average ([4]; 100 μg/mL): 1.15
GUSB (internal standard) gene expression, Average ([4]; 100 μg/mL): 1.00
HAS3 (hyaluronan synthase) gene expression, Average ([4]; 100 μg/mL): 1.27
IVL (involucrin) gene expression, Average ([4]; 100 μg/mL): 1.49
KLK5 (kallikrein 5) gene expression, Average ([4]; 100 μg/mL): 1.16
KLK7 (kallikrein 7) gene expression, Average ([4]; 100 μg/mL): 1.24
KRT1 (keratin 1) gene expression, Average ([4]; 100 μg/mL): 1.60
KRT10 (keratin 10) gene expression, Average ([4]; 100 μg/mL): 1.33
PPIA (Cyclophilin) (internal standard) gene expression, Average ([4]; 100 μg/mL): 0.96
PTGES (prostaglandin E synthetase) gene expression, Average ([4]; 100 μg/mL): 0.79
PTGS2 (COX-2) (cyclooxygenase 2) gene expression, Average ([4]; 100 μg/mL): 0.93
RPLPO (internal standard) gene expression, Average ([4]; 100 μg/mL): 1.06
SPINK5 (LEKTI1) (serine protease inhibitor) gene expression, Average ([4]; 100 μg/mL): 1.28
SPRR1B (cornified envelope constituent protein) gene expression, Average ([4]; 100 μg/mL): 1.42
TGM1 (transglutaminase 1) gene expression, Average ([4]; 100 μg/mL): 1.29
ATP5F1 (internal standard) gene expression, Average ([4]; 300 μg/mL): 1.01
CDH1 (E-cadherin) gene expression, Average ([4]; 300 μg/mL): 1.16
CLDN1 (claudin 1) gene expression, Average ([4]; 300 μg/mL): 1.43
DSC1 (desmocollin 1) gene expression, Average ([4]; 300 μg/mL): 1.59
DSG1 (desmoglein 1) gene expression, Average ([4]; 300 μg/mL): 1.15
EDN1 (endothelin 1) gene expression, Average ([4]; 300 μg/mL): 1.75
FN1 (fibronectin) gene expression, Average ([4]; 300 μg/mL): 1.22
GUSB (internal standard) gene expression, Average ([4]; 300 μg/mL): 0.97
HAS3 (hyaluronan synthase) gene expression, Average ([4]; 300 μg/mL): 1.60
IVL (involucrin) gene expression, Average ([4]; 300 μg/mL): 1.75
KLK5 (kallikrein 5) gene expression, Average ([4]; 300 μg/mL): 1.24
KLK7 (kallikrein 7) gene expression, Average ([4]; 300 μg/mL): 1.17
KRT1 (keratin 1) gene expression, Average ([4]; 300 μg/mL): 2.07
KRT10 (keratin 10) gene expression, Average ([4]; 300 μg/mL): 1.44
PPIA (Cyclophilin) (internal standard) gene expression, Average ([4]; 300 μg/mL): 0.99
PTGES (prostaglandin E synthetase) gene expression, Average ([4]; 300 μg/mL): 0.56
PTGS2 (COX-2) (cyclooxygenase 2) gene expression, Average ([4]; 300 μg/mL): 0.79
RPLPO (internal standard) gene expression, Average ([4]; 300 μg/mL): 1.08
SPINK5 (LEKTI1) (serine protease inhibitor) gene expression, Average ([4]; 300 μg/mL): 1.38
SPRR1B (cornified envelope constituent protein) gene expression, Average ([4]; 300 μg/mL): 1.60
TGM1 (transglutaminase 1) gene expression, Average ([4]; 300 μg/mL): 1.57
gene expression of E-cadherin (CDH1), change in words [4, 5]: significant increase
gene expression of SPRR1B, change in words [4, 5]: significant increase
gene expression of claudin 1 (CLDN1), change in words [4, 5]: significant increase
gene expression of cyclooxygenase (PTGS2), change in words [4, 5]: significant decrease
gene expression of desmocollin 1 (DSC1), change in words [4, 5]: significant increase
gene expression of desmoglein 1 (DSG1), change in words [4, 5]: significant increase
gene expression of endothelin 1 (EDN1), change in words [4, 5]: significant increase
gene expression of fibronectin (FN1), change in words [4, 5]: slight increase
gene expression of hyaluronan synthase (HAS3), change in words [4, 5]: significant increase
gene expression of involucrin (IVL), change in words [4, 5]: significant increase
gene expression of kallikrein 5 (KLK5), change in words [4, 5]: significant increase
gene expression of kallikrein 7 (KLK7), change in words [4, 5]: significant increase
gene expression of keratin 1 (KRT1), change in words [4, 5]: significant increase
gene expression of keratin 10 (KRT10), change in words [4, 5]: significant increase
gene expression of prostaglandin E synthetase (PTGES), change in words [4, 5]: significant decrease
gene expression of serine protease inhibitor (SPIMK5), change in words [4, 5]: significant increase
gene expression of transglutaminase 1 (TGM1), change in words [4, 5]: significant increase
